Results as given in US20030008024A1, “Therapeutic composition of herbal extracts and the uses thereof” (Advanced Herbal Therapeutics, Inc., priority 2001, published 2003).
Read-outs that look alike come from different tables or passages of the source.

How the values were obtained:
IL-1 = IL-1 activity in peritoneal macrophages after oral dosing (radio-ELISA); assay type: in vivo, NIH mice; settings: 0.02 g/kg p.o. once daily 10 days
Description: (§1) Totals of 50 NIH mice weighing 18-22g with equal sex distribution were divided into 5 groups and administered p.o. with different doses of AHT-323 or cyclophosphamide once daily for 10 days. 24h after the last dosing, mice were sacrificed and peritoneal macrophage and spleen cells suspension were prepared to measure IL-1 and IL-6 activity, respectively.
Method of testing IL-1: IL-1 activity in peritoneal macrophages was measured with radio-ELISA and the result was shown in Table 18.

[1] = test system: hemolysin antibody formation; test: Hemolysin antibody formation in SRBC-immunized normal mice; assay type: in vivo, mice (NIH, ICR, KM); settings: dosing day 0˜7; for Hymolysin Antibody / inhibition at 20 mg/kg: 0.02 g/kg
Description: Totals of 150 mice (50 NIH mice, 50 ICR mice and 50 KM mice) weighing 18-22 g with equal sex distribution were divided into 10 groups, each of which was immunized with 0.2 ml 5% sheep red blood cells (SRBC) i.p. once. AHT-323 was given from d0 to d6. Seven days after immunization, mice were sacrificed and blood was taken from the eyeball. Assay for hemolysin antibody formation was performed and its inhibition rate was evaluated.

IL-2 = IL-2 activity after oral dosing (IL-2 dependent CTLL cells); assay type: in vivo, ICR mice; settings: 0.02 g/kg once daily 10 days
Description: (§2) Total of 50 ICR mice weighing 18˜22 g with equal sex were divided into 5 groups. The mice were administrated orally with different doses of AHT-323 or control (0.5% tragacanth) once daily for 10 days. 24 hours after the last dosing, the peritoneal macrophage suspensions were prepared to measure TNFα content and IL-2 activity.
The IL-2 activity of macrophage was measured with IL-2 dependent CTLL cells by ELISA.

IL-6 = IL-6 activity in splenocytes after oral dosing (ELISA); assay type: in vivo, NIH mice; settings: 0.02 g/kg p.o. once daily 10 days
Description: as §1

[2] = test system: plaque forming cells (PFC) and serum IgM of AA mice; test: Humoral immunity of AA mice (PFC, IgM); assay type: in vivo, NIH mice; settings: 0.020 g/kg
Description: An experimental model of adjuvant arthritis was established in NIH mice weighing 20±2 g by intradermal injection of 0.05 ml Freund's Complete Adjuvant (FCA) to the planter of hind paw. Three weeks later, the mice were treated with different dose of AHT-323 for 5 days. At the same time, they were sensitized with 0.5 ml 10% SRBC i.p. The mice were sacrificed 5 days later. The spleen cells were prepared and the plaque forming cells (PFC) were measured, the serum was prepared and IgM was determined.

[3] = test system: splenocyte lymphocytes stimulated by Con A; test: Lymphocyte blastogenesis of normal mice stimulated by Con A (3H-TdR); assay type: in vivo, NIH mice; settings: 0.02 g/kg p.o. once daily 10 days
Description: 50 NIH mice with equal sex distribution were randomly divided into 5 groups. The mice were treated p.o. with different doses of AHT-323 or positive control drug once daily for 10 days. Twenty four hours after the last dosing, mice were sacrificed. The splenocytes were obtained and Con A (Concanavalin) was used to stimulate lymphocytes for transformation. ^3H-TdR adulteration method was used and the result was shown in table 20.

NK cells = NK cells activity of mouse splenocytes (colorimetry); assay type: in vivo, ICR mice; settings: 0.02 g/kg once daily ten days
Description: (§3) Totals of 50 ICR mice weighing 18˜22 g with equal sex distribution were randomly divided into five groups. The mice were administrated orally with different doses of AHT-323 or positive control drug respectively, once daily for consecutive ten days. 24 hours after the last dosing, the mice were sacrificed and splenocyte suspension was prepared for measurement of CD4 and CD8 content and NK cells activity.

[4] = test system: DTH of mice induced by DNFB; test: Delayed type hypersensitivity of mouse ear induced by DNFB; assay type: in vivo, NIH mice
Description: Totals of 50 NIH mice with equal sex were randomly divided into 5 groups. Each mouse was sensitized with 0.025 ml DNBF (1%) at day 0. Five days later […], 0.01 ml DNFB was pasted as aggression on the right ear. The mice were sacrificed 24 hours later and the weight of left and right ears were measured, the difference of which was used to evaluate reaction intensity of the delayed type hypersensitivity (DTH) of the mice.
In this experiment, AHT-323 was given for consecutive six days (0˜5 days) from the day when the mice were first sensitized with DNFB.
Totals of 60 NIH mice were used. AHT-323 treatments were given at different intervals as the following: from d-2 (2 days before first sensitizing) to Day 0 (first sensitization day), from Day-2 to Day 2 (2 days after first sensitizing), from Day-2 to Day5, and from Day 0 to Day 4, respectively. The swelling rate of mouse ear was determined.
Another 50 NIH mice were used to compare AHT-323 with cyclophosphamide or cytoxan (Cy) on the effects on DTH of mice. The mice were treated with either AHT-323 or Cy alone or both at different intervals.

TNFα = TNFα content of peritoneal macrophage suspension after oral dosing (ELISA); assay type: in vivo, ICR mice; settings: 0.02 g/kg once daily 10 days
Description: as §2
An ELISA assay was performed using anti-TNFα monoclonal antibody. The TNFα concentration was calculated based on the OD value at 450 nm.

CD4 and CD8 = CD4 and CD8 content of mouse splenocytes (biotin-labeled ELISA); assay type: in vivo, ICR mice; settings: 0.02 g/kg once daily ten days
Description: as §3

[5] = test system: writhing reaction of mice; test: Writhing reaction induced by HAC; assay type: in vivo, Kunming mice; settings: 0.01 g/kg once daily 3 days; first 20 minutes
Description: A total of 50 Kunming mice weighing 18-22 g with equal sex distribution were randomly divided into 5 groups. The mice were treated p.o. with different doses of AHT-323, tragacanth, or Morphine hydrochloride once daily for 3 days. One hour later, each mouse was treated with 0.2 ml saline containing 0.7% HAC, i.p. The time to first writhing and the number of writhing during the first 20 minutes were evaluated.

[6] = Mus musculus, 0 h, read-out: Inhibition rate (%)
[7] = Table 11, 0.1×3 g/kg, dosing day 0, 2, 4 each

## O=P1(N(CCCl)CCCl)NCCCO1 (stereo not drawn) [Cy, cyclophosphamide]
IL-1
  IL-1: 44.5 ± 7.7 ng/mL
[1]; ICR mice
  Hymolysin Antibody: 28 ± 7
[1]; KM mice
  Hymolysin Antibody: 46 ± 18
[1]; Mus musculus, 0 h, ICR mice, read-out: Inhibition Rate (%)
  inhibition at 20 mg/kg: 77.4%
[1]; Mus musculus, 0 h, KM mice, read-out: Inhibition Rate (%)
  inhibition at 20 mg/kg: 81.1%
[1]; Mus musculus, 0 h, NIH mice, 0.25 g/kg, read-out: Inhibition Rate (%)
  inhibition at 250 mg/kg: 75.4%
[1]; NIH mice, 0.25 g/kg
  Hemolysin Antibody (HC50): 33 ± 8
IL-2
  IL-2: 10.1 ± 3.0 IU/ml
IL-6
  IL-6: 49.6 ± 6.7 IU/ml
[2]
  IgM (Log2): 6.950 ± 0.597 Log2
  PFC (OD415): 0.835 ± 0.015 OD415
[3]
  Cpm: 9922 ± 1145 Cpm
  Stimulate Index: 13.06 ± 2.28
NK cells
  NK Activity: 23.10 ± 3.66
[4]; [6]
  inhibition at 20 mg/kg: 64.9%
  inhibition at 25 mg/kg: 29%
[4]; Mus musculus, read-out: Inhibition rate (%)
  inhibition at 250 mg/kg: -10.6%
[4]; Table 9, 0.020 g/kg, dosing day 0˜5
  % of ear Swelling: 5.4 ± 2.6%
[4]; Table 10, 0.025 g/kg, dosing day 0˜5
  % of ear Swelling: 32.8 ± 7.9%
[4]; [7]
  % of ear Swelling: 24.10 ± 7.28%
  Inhibition rate (%): 39.8%
[4]; Table 11, 0.25 g/kg, dosing day −3
  % of ear Swelling: 44.3 ± 7.9%
TNFα
  TNFα: 42.2 ± 9.6 pg/mL
CD4 and CD8
  CD4 (%): 11.50 ± 2.50 %
  CD4/CD8: 2.91 ± 0.53
  CD8 (%): 4.10 ± 1.20 %

## CN1CC[C@]23c4c5ccc(O)c4O[C@H]2[C@@H](O)C=C[C@H]3[C@H]1C5.Cl [Morphine, Morphine hydrochloride]
[5]
  Torsion number: 0.0 ± 0.0
